Laboratory results reported in paper PMC6271529, “Studies on the Anticonvulsant Activity and Influence on GABA-ergic Neurotransmission of 1,2,4-Triazole-3-thione-Based Compounds” (Molecules, 2014).
Entries after “also recorded” stand apart in the source; their conditions may differ. Where two headings read alike, the source gives them in different places.

Legend:
GABAA receptors = test: Radioligand binding assay, [3H]muscimol, rat cerebral cortex; conditions: compound 1 × 10^−6 M, [3H]muscimol, rat cerebral cortex;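 note: low percentages indicate weak binding of the compound to the receptor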
Description: Binding experiments were conducted in 96-well microplates in a total volume of 200 μL of appropriate buffer. The reaction mixture included 50 μL solution of test compound, 50 μL of radioligand, and […] the tissue suspension. Rat cerebral cortex was used for each receptor. […] Radioligand binding data were analyzed using iterative curve fitting routines (GraphPAD/Prism, Version 3.0, San Diego, CA, USA). Ki values were calculated from the Cheng and Prusoff equation [36].

[1] = system: maximal electroshock-induced seizures; test: Maximal electroshock-induced seizure (MES) test in mice; format: in vivo, mouse; conditions: for p/t, number of animals protected against MES-induced seizures / number tested / responders at 300 mg/kg: 300 mg/kg i.p.; for responders at 300 mg/kg / ED50: Mus musculus, ip; for responders at 300 mg/kg: read-out: percent of animals protected against MES-induced seizures; for ED50: read-out: ED50 ± S.E. (MES test); for PI (TD50/ED50): protective index
Description: Additionally, all efforts were made to minimize animal suffering and to use only the number of animals necessary to produce reliable scientific data.
In the initial stage of the study, groups of eight mice were supplied with the compounds (administered intraperitoneally) in a dose of 300 mg/kg and then exposed to electrical impulse at fixed intervals (15, 30, 60, 120 min).
Each mouse was used only once.
Fresh drug solutions were prepared on each day of experimentation and administered at 15, 30, 60 and 120 min. before the initiation of maximal electroconvulsions. Electroconvulsions were produced by a current (0.2 s stimulus duration; 500 V, 50 Hz, fixed current intensity of 25 mA) delivered via ear-clip electrodes by a Rodent Shocker generator (constant-current stimulator Type 221, Hugo Sachs Elektronik, Freiburg, Germany). The criterion for the occurrence of seizure activity was the tonic hind limb extension. The animals were administered with a constant dose of 300 mg/kg of each of the examined compounds and were subjected to MES-induced seizures. […] The animals were administered with different doses of the tested compounds so as to obtain a variable percentage of protection against maximal electroconvulsions, allowing the construction of dose-response relationship lines for each examined compound administered i.p. at various pretreatment times, according to Litchfield and Wilcoxon. Each ED50 value represents the dose of the studied compounds that is required to protect 50% of the animals tested against MES-induced seizures.

[2] = system: benzodiazepine (BDZ)-binding sites; test: Radioligand binding assay, [3H]flunitrazepam, rat cerebral cortex; conditions: compound 1 × 10^−6 M;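 note: low percentages indicate weak binding of the compound to the site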
Description: Binding experiments were conducted in 96-well microplates in a total volume of 200 μL of appropriate buffer. The reaction mixture included 50 μL solution of test compound, 50 μL of radioligand, and […] the tissue suspension. Rat cerebral cortex was used for each receptor. The radioactivity was measured in MicroBeta TriLux 1450-liquid scintillation counter (PerkinElmer, Waltham, MA, USA). Radioligand binding data were analyzed using iterative curve fitting routines (GraphPAD/Prism, Version 3.0, San Diego, CA, USA). Ki values were calculated from the Cheng and Prusoff equation [36].

[3] = pretreatment time 120 min, mice
[4] = 0.25 h, pretreatment time 15 min, mice
[5] = 0.5 h, pretreatment time 30 min, mice
[6] = 1 h, pretreatment time 60 min, mice
[7] = 2 h, pretreatment time 120 min, mice

Compound: Cc1ccc(-n2c(-c3cccc(Cl)c3)nn(CN3CCN(c4ccccc4)CC3)c2=S)cc1 [Compound 23a, 5-(3-Chlorophenyl)-4-(4-methylphenyl)-2-[(4-phenylpiperazin-1-yl)methyl]-2,4-dihydro-3H-1,2,4-triazole-3-thione]
- Percent of Specific Binding, GABAA (GABAA receptors): 23%
- p/t, number of animals protected against MES-induced seizures / number tested ([1]; pretreatment time 15 min, mice): 0/8
- p/t, number of animals protected against MES-induced seizures / number tested ([1]; pretreatment time 30 min, mice): 0/8
- p/t, number of animals protected against MES-induced seizures / number tested ([1]; pretreatment time 60 min, mice): 0/8
- p/t, number of animals protected against MES-induced seizures / number tested [1, 3]: 0/8
- responders at 300 mg/kg [1, 4]: 0%
- responders at 300 mg/kg [1, 5]: 0%
- responders at 300 mg/kg [1, 6]: 0%
- responders at 300 mg/kg [1, 7]: 0%
- Percent of Specific Binding, BDZ [2]: 7%

Compound: CN1C(=O)CN=C(c2ccccc2)c2cc(Cl)ccc21 [Diazepam, reference compound]
- Percent of Specific Binding, BDZ [2]: 83%

Compound: NCCCC(=O)O [GABA, γ-aminobutyric acid]
- Percent of Specific Binding, GABAA (GABAA receptors): 82%

Compound: Cc1ccc(-c2nc3ccc(C)cn3c2CC(=O)N(C)C)cc1 [Zolpidem, reference compound]
- Percent of Specific Binding, BDZ [2]: 73%

Compound: Cc1ccc(-n2c(-c3cccc(Cl)c3)nn(CN3CCOCC3)c2=S)cc1 [Compound 22a, 5-(3-Chlorophenyl)-4-(4-methylphenyl)-2-(morpholin-4-ylmethyl)-2,4-dihydro-3H-1,2,4-triazole-3-thione]
- Percent of Specific Binding, GABAA (GABAA receptors): 6%
- p/t, number of animals protected against MES-induced seizures / number tested ([1]; pretreatment time 15 min, mice): 4/8
- p/t, number of animals protected against MES-induced seizures / number tested ([1]; pretreatment time 30 min, mice): 5/8
- p/t, number of animals protected against MES-induced seizures / number tested ([1]; pretreatment time 60 min, mice): 3/8
- p/t, number of animals protected against MES-induced seizures / number tested [1, 3]: 2/8
- anticonvulsant activity (in words) ([1]; MES test, mice): slightly weaker than that of valproate; also recorded: weak anticonvulsant activity
- responders at 300 mg/kg [1, 4]: 50%
- responders at 300 mg/kg [1, 5]: 62.5%
- responders at 300 mg/kg [1, 6]: 37.5%
- responders at 300 mg/kg [1, 7]: 25%
- ED50 ([1]; pretreatment time 15 min, mice): 224 ± 20.9 mg/kg
- ED50 ([1]; pretreatment time 30 min, mice): 228 ± 14.7 mg/kg
- ED50 ([1]; pretreatment time 60 min, mice): 274 ± 10.9 mg/kg
- ED50 [1, 3]: 448 ± 21.4 mg/kg
- PI (TD50/ED50) ([1]; chimney TD50 / MES ED50, pretreatment time 15 min): 1.5
- PI (TD50/ED50) ([1]; chimney TD50 / MES ED50, pretreatment time 30 min): 1.4
- PI (TD50/ED50) ([1]; chimney TD50 / MES ED50, pretreatment time 60 min): 1.6
- PI (TD50/ED50) ([1]; chimney TD50 / MES ED50, pretreatment time 120 min): 1.0
- onset of action ([1]; significant protection as early as 15 min after parenteral administration, MES, mice): quick onset of action
- Percent of Specific Binding, BDZ [2]: 12%

Compound: S=c1n(CN2CCN(c3ccccc3)CC2)nc(-c2ccc(Cl)cc2)n1-c1ccccc1Br [Compound 26a, 4-(2-Bromophenyl)-5-(4-chlorophenyl)-2-[(4-phenylpiperazin-1-yl)methyl]-2,4-dihydro-3H-1,2,4-triazole-3-thione]
- melting point: 140 to 142 °C
- p/t, number of animals protected against MES-induced seizures / number tested ([1]; pretreatment time 15 min, mice): 0/8
- p/t, number of animals protected against MES-induced seizures / number tested ([1]; pretreatment time 30 min, mice): 0/8
- p/t, number of animals protected against MES-induced seizures / number tested ([1]; pretreatment time 60 min, mice): 0/8
- p/t, number of animals protected against MES-induced seizures / number tested [1, 3]: 0/8
- responders at 300 mg/kg [1, 4]: 0%
- responders at 300 mg/kg [1, 5]: 0%
- responders at 300 mg/kg [1, 6]: 0%
- responders at 300 mg/kg [1, 7]: 0%

Compound: S=c1n(CN2CCN(c3ccccc3)CC2)nc(-c2ccc(Cl)cc2)n1-c1ccc(Br)cc1 [Compound 29a, 4-(4-Bromophenyl)-5-(4-chlorophenyl)-2-[(4-phenylpiperazin-1-yl)methyl]-2,4-dihydro-3H-1,2,4-triazole-3-thione]
- melting point: 178 to 180 °C
- p/t, number of animals protected against MES-induced seizures / number tested ([1]; pretreatment time 15 min, mice): 0/8
- p/t, number of animals protected against MES-induced seizures / number tested ([1]; pretreatment time 30 min, mice): 0/8
- p/t, number of animals protected against MES-induced seizures / number tested ([1]; pretreatment time 60 min, mice): 0/8
- p/t, number of animals protected against MES-induced seizures / number tested [1, 3]: 0/8
- responders at 300 mg/kg [1, 4]: 0%
- responders at 300 mg/kg [1, 5]: 0%
- responders at 300 mg/kg [1, 6]: 0%
- responders at 300 mg/kg [1, 7]: 0%

Compound: Cc1ccccc1-n1c(-c2cccc(Cl)c2)n[nH]c1=S [Compound 8a, 5-(3-Chlorophenyl)-4-(2-methylphenyl)-2,4-dihydro-3H-1,2,4-triazole-3-thione]
- melting point: 186 to 188 °C
- p/t, number of animals protected against MES-induced seizures / number tested ([1]; pretreatment time 15 min, mice): 0/8
- p/t, number of animals protected against MES-induced seizures / number tested ([1]; pretreatment time 30 min, mice): 0/8
- p/t, number of animals protected against MES-induced seizures / number tested ([1]; pretreatment time 60 min, mice): 0/8
- p/t, number of animals protected against MES-induced seizures / number tested [1, 3]: 0/8
- responders at 300 mg/kg [1, 4]: 0%
- responders at 300 mg/kg [1, 5]: 0%
- responders at 300 mg/kg [1, 6]: 0%
- responders at 300 mg/kg [1, 7]: 0%

Compound: CCN(CC)c1ccc(-n2c(-c3ccc(Cl)cc3)n[nH]c2=S)cc1 [Compound 18a, 5-(4-Chlorophenyl)-4-[4-(diethylamino)phenyl]-2,4-dihydro-3H-1,2,4-triazole-3-thione]
- melting point: 264 to 266 °C
- p/t, number of animals protected against MES-induced seizures / number tested ([1]; pretreatment time 15 min, mice): 0/8
- p/t, number of animals protected against MES-induced seizures / number tested ([1]; pretreatment time 30 min, mice): 0/8
- p/t, number of animals protected against MES-induced seizures / number tested ([1]; pretreatment time 60 min, mice): 1/8
- p/t, number of animals protected against MES-induced seizures / number tested [1, 3]: 0/8
- responders at 300 mg/kg [1, 4]: 0%
- responders at 300 mg/kg [1, 5]: 0%
- responders at 300 mg/kg [1, 6]: 12.5%
- responders at 300 mg/kg [1, 7]: 0%

Compound: Fc1cccc(-n2c(-c3cccc(Cl)c3)n[nH]c2=S)c1 [Compound 2a, 5-(3-Chlorophenyl)-4-(3-fluorophenyl)-2,4-dihydro-3H-1,2,4-triazole-3-thione]
- melting point: 221 to 222 °C
- p/t, number of animals protected against MES-induced seizures / number tested ([1]; pretreatment time 15 min, mice): 0/8
- p/t, number of animals protected against MES-induced seizures / number tested ([1]; pretreatment time 30 min, mice): 0/8
- p/t, number of animals protected against MES-induced seizures / number tested ([1]; pretreatment time 60 min, mice): 0/8
- p/t, number of animals protected against MES-induced seizures / number tested [1, 3]: 0/8
- responders at 300 mg/kg [1, 4]: 0%
- responders at 300 mg/kg [1, 5]: 0%
- responders at 300 mg/kg [1, 6]: 0%
- responders at 300 mg/kg [1, 7]: 0%

Compound: Fc1ccc(N2CCN(Cn3nc(-c4ccc(Cl)cc4)n(-c4ccccc4Br)c3=S)CC2)cc1 [Compound 27a, 4-(2-Bromophenyl)-5-(4-chlorophenyl)-2-{[4-(4-fluorophenyl)piperazin-1-yl]methyl}-2,4-dihydro-3H-1,2,4-triazole-3-thione]
- melting point: 168 to 170 °C
- p/t, number of animals protected against MES-induced seizures / number tested ([1]; pretreatment time 15 min, mice): 0/8
- p/t, number of animals protected against MES-induced seizures / number tested ([1]; pretreatment time 30 min, mice): 0/8
- p/t, number of animals protected against MES-induced seizures / number tested ([1]; pretreatment time 60 min, mice): 0/8
- p/t, number of animals protected against MES-induced seizures / number tested [1, 3]: 0/8
- responders at 300 mg/kg [1, 4]: 0%
- responders at 300 mg/kg [1, 5]: 0%
- responders at 300 mg/kg [1, 6]: 0%
- responders at 300 mg/kg [1, 7]: 0%

Compound: CC(=O)c1ccc(-n2c(-c3cccc(Cl)c3)n[nH]c2=S)cc1 [Compound 11a, 4-(4-Acetylphenyl)-5-(3-chlorophenyl)-2,4-dihydro-3H-1,2,4-triazole-3-thione]
- melting point: 218 to 220 °C
- p/t, number of animals protected against MES-induced seizures / number tested ([1]; pretreatment time 15 min, mice): 1/8
- p/t, number of animals protected against MES-induced seizures / number tested ([1]; pretreatment time 30 min, mice): 1/8
- p/t, number of animals protected against MES-induced seizures / number tested ([1]; pretreatment time 60 min, mice): 1/8
- p/t, number of animals protected against MES-induced seizures / number tested [1, 3]: 0/8
- responders at 300 mg/kg [1, 4]: 12.5%
- responders at 300 mg/kg [1, 5]: 12.5%
- responders at 300 mg/kg [1, 6]: 12.5%
- responders at 300 mg/kg [1, 7]: 0%
